According to patent US9663473B2 (Actelion Pharmaceuticals Ltd, priority 2013, dated 2017):
Structures can show the parent of a compound that is named as a salt.

What follows are molecules tested against T1, recombinant human ALX receptor (Homo sapiens, UniProt P25090) (assay: Intracellular calcium measurements (FLIPR), ALX receptor agonistic activity). Details: HEK293-hALXR-Gα16 cells, Fluo-4 calcium signal, normalized to WKYMVm 10 nM.
T1 construct: expressed in transfected cells; host or cells: HEK293 (HEK293-hALXR-Gα16)
T1 sequence (P25090 1-351): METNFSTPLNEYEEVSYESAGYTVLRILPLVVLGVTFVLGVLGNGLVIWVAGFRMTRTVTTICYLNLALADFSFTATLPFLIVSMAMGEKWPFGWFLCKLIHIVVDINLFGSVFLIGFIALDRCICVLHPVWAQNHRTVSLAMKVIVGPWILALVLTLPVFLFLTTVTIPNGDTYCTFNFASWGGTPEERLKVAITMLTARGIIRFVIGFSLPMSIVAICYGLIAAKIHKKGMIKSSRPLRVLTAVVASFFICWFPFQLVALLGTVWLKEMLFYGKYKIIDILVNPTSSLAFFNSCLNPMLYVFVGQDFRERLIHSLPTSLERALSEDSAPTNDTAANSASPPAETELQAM
Type: cell-based
Procedure: The ALX receptor agonistic activity of the compounds of formula (I) is determined in accordance with the following experimental method.
Intracellular Calcium Measurements:
Cells expressing recombinant human ALX receptor and the G-protein Gα16 (HEK293-hALXR-Gα16) were grown to 80% confluency in Growing Medium (GM). Cells were detached from culture dishes with a cell dissociation buffer (Invitrogen, 13151-014), and collected by centrifugation at 1′000 rpm at rt for 5 min in Assay Buffer (AB) (equal parts of Hank's BSS (Gibco, 14065-049) and DMEM without Phenol Red (Gibco, 11880-028)). After 60 min incubation at 37° C. under 5% CO2 in AB supplemented with 1 μM Fluo-4 (AM) (Invitrogen, F14202) and 20 mM HEPES (Gibco, 15630-056), the cells were washed and resuspended in AB. They were then seeded onto 384-well FLIPR assay plates (Greiner, 781091) at 50′000 cells in 70 μl per well and sedimented by centrifugation at 1′000 rpm for 1 min. Stock solutions of test compounds were made up at a concentration of 10 mM in DMSO, and serially diluted in AB to concentrations required for activation dose response curves. WKYMVm (Phoenix Peptides) was used as a reference agonist. A FLIPR Tetra instrument (Molecular Devices) was operated according to the manufacturer's standard instructions, adding 4 μl of test compound dissolved at 10 mM in DMSO and diluted prior to the experiment in assay buffer to obtain the desired final concentration. Changes in fluorescence were monitored before and after the addition of test compounds at lex=488 nm and lem=540 nm. Emission peak values above base level after compounds addition were exported after base line subtraction. Values were normalized to high-level control (WKYMVm compound, 10 nM final concentration) after subtraction of the base line value (AB addition).

Molecule | EC50 [nM]
1-(1-(1H-Benzo[d]imidazol-2-yl)-2-(3,5-difluoro-4-methoxyphenyl)ethyl)-3-(4-hydroxybicyclo[2.2.2]octan-1-yl)urea [Example 242] | 70
C[C@]1(O)CC[C@H](NC(=O)NC(Cc2ccc(Br)c(F)c2)c2nc3ccccc3[nH]2)CC1 (mixture of isomers) [Example 231, 1-(1-(1H-Benzo[d]imidazol-2-yl)-2-(4-bromo-3-fluorophenyl)ethyl)-3-(trans-4-hydroxy-4-methylcyclohexyl)urea] | 5.2
COc1ccc(CC(NC(=O)N[C@H]2CC[C@](C)(O)CC2)c2nc3ccccc3[nH]2)c(F)c1 (mixture of isomers) [Example 234, 1-(1-(1H-Benzo[d]imidazol-2-yl)-2-(2-fluoro-4-methoxyphenyl)ethyl)-3-(trans-4-hydroxy-4-methylcyclohexyl)urea] | 5.1
COc1cc(F)c(CC(NC(=O)N[C@H]2CC[C@](C)(O)CC2)c2nc3ccccc3[nH]2)c(F)c1 (mixture of isomers) [Example 236, 1-(1-(1H-Benzo[d]imidazol-2-yl)-2-(2,6-difluoro-4-methoxyphenyl)ethyl)-3-(trans-4-hydroxy-4-methylcyclohexyl)urea] | 3.5
C[C@]1(O)CC[C@H](NC(=O)NC(Cc2ccc(C(F)(F)F)c(F)c2)c2nc3ccccc3[nH]2)CC1 (mixture of isomers) [Example 239, 1-(1-(1H-Benzo[d]imidazol-2-yl)-2-(3-fluoro-4-(trifluoromethyl)phenyl)ethyl)-3-(trans-4-hydroxy-4-methylcyclohexyl)urea] | 77
COc1c(F)cc(CC(NC(=O)N[C@H]2CC[C@](C)(O)CC2)c2nc3ccccc3[nH]2)cc1F (mixture of isomers) [Example 243, 1-(1-(1H-Benzo[d]imidazol-2-yl)-2-(3,5-difluoro-4-methoxyphenyl)ethyl)-3-(trans-4-hydroxy-4-methylcyclohexyl)urea] | 155
COc1ccc(CC(NC(=O)N[C@H]2CC[C@](C)(O)CC2)c2nc3ccc(F)cc3[nH]2)c(F)c1 (mixture of isomers) [Example 246, 1-(1-(6-Fluoro-1H-benzo[d]imidazol-2-yl)-2-(2-fluoro-4-methoxyphenyl)ethyl)-3-(trans-4-hydroxy-4-methylcyclohexyl)urea] | 1.8
COc1cc(F)c(CC(NC(=O)N[C@H]2CC[C@](C)(O)CC2)c2nc3ccccc3[nH]2)cc1F (mixture of isomers) [Example 250, 1-(1-(1H-Benzo[d]imidazol-2-yl)-2-(2,5-difluoro-4-methoxyphenyl)ethyl)-3-(trans-4-hydroxy-4-methylcyclohexyl)urea] | 7.2
COc1ccc(CC(NC(=O)N[C@H]2CC[C@](C)(O)CC2)c2nc3ccccc3[nH]2)c(F)c1F (mixture of isomers) [Example 252, 1-(1-(1H-Benzo[d]imidazol-2-yl)-2-(2,3-difluoro-4-methoxyphenyl)ethyl)-3-(trans-4-hydroxy-4-methylcyclohexyl)urea] | 17
C[C@]1(O)CC[C@H](NC(=O)NC(Cc2ccc(Br)cc2F)c2nc3ccccc3[nH]2)CC1 (mixture of isomers) [Example 253, 1-(1-(1H-Benzo[d]imidazol-2-yl)-2-(4-bromo-2-fluorophenyl)ethyl)-3-(trans-4-hydroxy-4-methylcyclohexyl)urea] | 25
COc1ccc(CC(C)(NC(=O)N[C@H]2CC[C@H](O)CC2)c2nc3ccccc3[nH]2)cc1 (relative stereo) [Example 1, 1-(2-(1H-Benzo[d]imidazol-2-yl)-1-(4-methoxyphenyl)propan-2-yl)-3-(trans-4-hydroxycyclohexyl)urea] | 152
COc1ccc(C2(C(NC(=O)N[C@H]3CC[C@H](O)CC3)c3nc4ccccc4[nH]3)CC2)cc1 (relative stereo) [Example 2, 1-((1H-Benzo[d]imidazol-2-yl)(1-(4-methoxyphenyl)cyclopropyl)methyl)-3-(trans-4-hydroxycyclohexyl)urea] | 81
COc1ccc(C[C@@H](NC(=O)N[C@H]2C[C@@H]2c2ccccc2)c2nc3ccccc3[nH]2)cc1 (relative stereo) [Example 16, 1-((R)-1-(1H-Benzo[d]imidazol-2-yl)-2-(4-methoxyphenyl)ethyl)-3-((1 S*,2R*)-2-phenylcyclopropyl)urea hydrochloride] | 112

Other lines, results leading:

EC50 [nM] | Molecule
119 | COc1ccc(C(C)(C)C(NC(=O)N[C@H]2CC[C@H](O)CC2)c2nc3ccccc3[nH]2)cc1 (relative stereo) [Example 3, 1-(1-(1H-Benzo[d]imidazol-2-yl)-2-(4-methoxyphenyl)-2-methylpropyl)-3-(trans-4-hydroxycyclohexyl)urea]
29 | COc1ccc(C[C@@H](NC(=O)N[C@H]2CCCC[C@H]2C(N)=O)c2nc3ccccc3[nH]2)cc1 (relative stereo) [Example 18, (1R*,2S*)-2-(3-((R)-1-(1H-Benzo[d]imidazol-2-yl)-2-(4-methoxyphenyl)ethyl)ureido)cyclohexanecarboxamide]
24 | COc1ccc(C[C@@H](NC(=O)N[C@H]2CCCC[C@@H]2O)c2nc3ccccc3[nH]2)cc1 (relative stereo) [Example 24, 1-((R)-1-(1H-Benzo[d]imidazol-2-yl)-2-(4-methoxyphenyl)ethyl)-3-((1 S*,2S*)-2-hydroxycyclohexyl)urea]
9.2 | CCOC(=O)[C@@H]1CCCC[C@@H]1NC(=O)N[C@H](Cc1ccc(OC)cc1)c1nc2ccccc2[nH]1 (relative stereo) [Example 28, (1R*,2S*)-Ethyl 2-(3-((R)-1-(1H-benzo[d]imidazol-2-yl)-2-(4-methoxyphenyl)ethyl)ureido)cyclohexanecarboxylate]
56 | CCOC(=O)[C@@H]1CCCC[C@H]1NC(=O)N[C@H](Cc1ccc(OC)cc1)c1nc2ccccc2[nH]1 (relative stereo) [Example 29, trans-Ethyl 2-(3-((R)-1-(1H-benzo[d]imidazol-2-yl)-2-(4-methoxyphenyl)ethyl)ureido)cyclohexanecarboxylate (ent-1)]
13 | COc1ccc(C[C@@H](NC(=O)N[C@H]2CCCC[C@@H]2CO)c2nc3ccccc3[nH]2)cc1 (relative stereo) [Example 32, 1-((R)-1-(1H-Benzo[d]imidazol-2-yl)-2-(4-methoxyphenyl)ethyl)-3-((1 S*,2S*)-2-(hydroxymethyl)cyclohexyl)urea]
42 | COc1ccc(C[C@@H](NC(=O)N[C@H]2CCCC[C@H]2CO)c2nc3ccccc3[nH]2)cc1 (relative stereo) [Example 34, 1-((R)-1-(1H-Benzo[d]imidazol-2-yl)-2-(4-methoxyphenyl)ethyl)-3-((1 S*,2R*)-2-(hydroxymethyl)cyclohexyl)urea]
540 | COc1ccc(CC(NC(=O)N(C)[C@H]2CC[C@H](O)CC2)c2nc3ccccc3[nH]2)cc1 (relative stereo) [Example 76, 3-(1-(1H-Benzo[d]imidazol-2-yl)-2-(4-methoxyphenyl)ethyl)-1-(trans-4-hydroxycyclohexyl)-1-methylurea]
203 | CCOc1ccc(CC(NC(=O)N[C@H]2CC[C@H](O)CC2)c2nc3ccccc3[nH]2)cc1 (relative stereo) [Example 77, 1-(1-(1H-Benzo[d]imidazol-2-yl)-2-(4-ethoxyphenyl)ethyl)-3-(trans-4-hydroxycyclohexyl)urea]
693 | N#Cc1ccc(CC(NC(=O)N[C@H]2CC[C@H](O)CC2)c2nc3ccccc3[nH]2)cc1 (relative stereo) [Example 78, 1-(1-(1H-Benzo[d]imidazol-2-yl)-2-(4-cyanophenyl)ethyl)-3-(trans-4-hydroxycyclohexyl)urea]
707 | CC(C)(C)c1ccc(CC(NC(=O)N[C@H]2CC[C@H](O)CC2)c2nc3ccccc3[nH]2)cc1 (relative stereo) [Example 79, 1-(1-(1H-Benzo[d]imidazol-2-yl)-2-(4-(tert-butyl)phenyl)ethyl)-3-(trans-4-hydroxycyclohexyl)urea]
172 | COc1ccc(CC(NC(=O)N[C@H]2CC[C@H](OC)CC2)c2nc3ccccc3[nH]2)cc1 (relative stereo) [Example 80, 1-(1-(1H-Benzo[d]imidazol-2-yl)-2-(4-methoxyphenyl)ethyl)-3-(trans-4-methoxycyclohexyl)urea]
1.4 | O=C(NC(Cc1ccc(Br)cc1)c1nc2cc(Cl)ccc2[nH]1)N[C@H]1CC[C@H](O)CC1 (relative stereo) [Example 81, 1-(2-(4-Bromophenyl)-1-(5-chloro-1H-benzo[d]imidazol-2-yl)ethyl)-3-(trans-4-hydroxycyclohexyl)urea]
